According to ChEMBL document CHEMBL1132916, “Total synthesis of pyrrolizidines 223H', 239K', 265H', and 267H' found in Madagascan frogs (Mantella) and their affinities for nicotinic acetylcholine receptor” (Bioorg Med Chem Lett, 2000):

Target: Acetylcholine receptor (Torpedo californica, UniProt P02710+P02712+P02714+P02718)
Assay: Compound was evaluated for inhibition of [3H]TCP binding to Nicotinic acetylcholine receptor of Torpedo californica
Type: protein-complex assay, Tetronarce californica

Chain of Acetylcholine receptor (P02710 whole entry): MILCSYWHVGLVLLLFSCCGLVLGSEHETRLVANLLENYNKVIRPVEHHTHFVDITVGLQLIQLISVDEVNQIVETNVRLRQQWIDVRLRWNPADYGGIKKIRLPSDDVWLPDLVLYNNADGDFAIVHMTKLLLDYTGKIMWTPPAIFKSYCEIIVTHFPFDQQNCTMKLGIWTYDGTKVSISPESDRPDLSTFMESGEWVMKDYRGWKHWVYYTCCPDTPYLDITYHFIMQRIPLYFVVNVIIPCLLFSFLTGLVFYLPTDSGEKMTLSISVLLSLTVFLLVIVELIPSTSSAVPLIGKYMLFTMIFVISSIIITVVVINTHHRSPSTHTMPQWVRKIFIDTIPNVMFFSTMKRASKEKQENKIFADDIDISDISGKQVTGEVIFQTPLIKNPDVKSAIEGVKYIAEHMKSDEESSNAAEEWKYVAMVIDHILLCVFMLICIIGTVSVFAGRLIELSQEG
Chain of Acetylcholine receptor (P02712 whole entry): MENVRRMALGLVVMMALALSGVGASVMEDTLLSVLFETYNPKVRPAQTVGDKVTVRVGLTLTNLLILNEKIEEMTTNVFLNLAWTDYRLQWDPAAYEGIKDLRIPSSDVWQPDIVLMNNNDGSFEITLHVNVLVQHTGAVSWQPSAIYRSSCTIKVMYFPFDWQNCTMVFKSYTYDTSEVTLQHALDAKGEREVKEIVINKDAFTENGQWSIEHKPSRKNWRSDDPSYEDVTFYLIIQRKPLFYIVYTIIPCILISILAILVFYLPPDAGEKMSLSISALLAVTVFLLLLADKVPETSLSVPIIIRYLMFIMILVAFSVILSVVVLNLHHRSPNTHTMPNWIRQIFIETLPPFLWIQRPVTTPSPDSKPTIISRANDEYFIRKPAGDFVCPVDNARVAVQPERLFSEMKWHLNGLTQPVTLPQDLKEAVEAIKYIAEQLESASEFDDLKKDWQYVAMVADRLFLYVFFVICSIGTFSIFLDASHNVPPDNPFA
Chain of Acetylcholine receptor (P02718 whole entry): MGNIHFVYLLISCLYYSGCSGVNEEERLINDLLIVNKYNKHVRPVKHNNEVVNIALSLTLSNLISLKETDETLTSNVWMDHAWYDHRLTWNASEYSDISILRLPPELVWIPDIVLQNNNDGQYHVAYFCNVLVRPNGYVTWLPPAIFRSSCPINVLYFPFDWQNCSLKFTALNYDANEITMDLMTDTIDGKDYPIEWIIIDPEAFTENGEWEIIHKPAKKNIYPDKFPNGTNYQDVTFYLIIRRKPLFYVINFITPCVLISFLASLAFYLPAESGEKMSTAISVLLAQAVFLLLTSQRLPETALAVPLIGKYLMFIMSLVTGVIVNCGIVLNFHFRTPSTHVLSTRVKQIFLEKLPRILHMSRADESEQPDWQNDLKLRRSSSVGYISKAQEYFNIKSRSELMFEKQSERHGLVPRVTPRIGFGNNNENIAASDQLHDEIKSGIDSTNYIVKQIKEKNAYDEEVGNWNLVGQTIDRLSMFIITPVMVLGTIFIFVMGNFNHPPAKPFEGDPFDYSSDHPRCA
Chain of Acetylcholine receptor (P02714 whole entry): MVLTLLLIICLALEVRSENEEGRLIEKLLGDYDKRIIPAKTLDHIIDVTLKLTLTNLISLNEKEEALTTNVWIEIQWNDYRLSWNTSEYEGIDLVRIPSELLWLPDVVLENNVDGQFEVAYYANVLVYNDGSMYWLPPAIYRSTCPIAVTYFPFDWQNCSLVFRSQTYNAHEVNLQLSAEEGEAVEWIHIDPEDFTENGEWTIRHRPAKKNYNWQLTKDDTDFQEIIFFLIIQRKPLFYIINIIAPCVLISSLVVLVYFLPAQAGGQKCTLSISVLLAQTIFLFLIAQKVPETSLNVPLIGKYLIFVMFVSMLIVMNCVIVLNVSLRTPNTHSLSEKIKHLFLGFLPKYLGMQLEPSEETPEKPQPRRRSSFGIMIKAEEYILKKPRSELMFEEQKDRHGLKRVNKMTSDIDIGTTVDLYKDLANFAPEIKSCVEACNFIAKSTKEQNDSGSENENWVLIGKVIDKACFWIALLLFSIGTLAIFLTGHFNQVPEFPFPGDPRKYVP

Row | SMILES | Ki [µM]
1 | CCCCCCC[C@@H]1CC[C@H]2CC[C@H](C)N12 | 50
2 | C[C@H](O)CCCCC[C@@H]1CC[C@H]2CC[C@H](C)N12 | 3300
3 | CCCC[C@@H]1CCCC2CC[C@@H](CCCC)N21 (stereo partly drawn) | 420
4 | C[C@@H](O)CCCCC[C@@H]1CC[C@H]2CC[C@H](C)N12 | 8300
5 | CCC[C@H]1CC[C@@H]2CC[C@@H](CCCCC[C@@H](C)O)N21 | 3100
6 | CCCC[C@H]1CCCC2CC[C@@H](CCCC)N21 (stereo partly drawn) | 370
7 | CCC[C@H]1CC[C@@H]2CC[C@@H](CCCCC[C@H](C)O)N21 | 3100
8 | CCC[C@H]1CC[C@@H]2CC[C@@H](CCCCCC(C)=O)N21 | 830
